Reference: patent US9796733B2, “Imidazo-pyrazine derivatives useful as soluble guanylate cyclase activators” (Merck Sharp & Dohme Corp., priority 2014, dated 2017)

Experiments:
[1] = system: Spontaneously hypertensive rats (SHR); experiment: Acute efficacy in spontaneously hypertensive rats (SHR): telemetry blood pressure lowering after a single oral dose; format: in vivo, rat
Summary of the method: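 Values are the maximum peak fall in systolic pressure after one oral dose (mpk), computed hourly against baseline from a vehicle dose given the day before. Rats were conscious, male, spontaneously hypertensive, with femoral-aortic telemetry recording 30 s every 10 min, 14 days post-surgery.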

sGC α1/β1 heterodimer = target: T1, sGC α1/β1 heterodimer (Homo sapiens, UniProt Q02108+Q02153); experiment: Cell-based sGC functional assay (CASA assay): cGMP generation in CHO-K1/sGC cells, HTRF detection; details: for Emax: CHO-K1, percent activation relative to standard Compound A in CHO-K1/sGC cells, read-out: % Act.; for EC50: inflection point (IP) of cGMP generation in CHO-K1/sGC cells, 4P fit, activity expressed as percentage of Compound A
T1 construct: expressed in transfected cells; host or cells: CHO-K1 (clone #7, CHO-K1/sGC)
T1 sequence (Q02108 1-690): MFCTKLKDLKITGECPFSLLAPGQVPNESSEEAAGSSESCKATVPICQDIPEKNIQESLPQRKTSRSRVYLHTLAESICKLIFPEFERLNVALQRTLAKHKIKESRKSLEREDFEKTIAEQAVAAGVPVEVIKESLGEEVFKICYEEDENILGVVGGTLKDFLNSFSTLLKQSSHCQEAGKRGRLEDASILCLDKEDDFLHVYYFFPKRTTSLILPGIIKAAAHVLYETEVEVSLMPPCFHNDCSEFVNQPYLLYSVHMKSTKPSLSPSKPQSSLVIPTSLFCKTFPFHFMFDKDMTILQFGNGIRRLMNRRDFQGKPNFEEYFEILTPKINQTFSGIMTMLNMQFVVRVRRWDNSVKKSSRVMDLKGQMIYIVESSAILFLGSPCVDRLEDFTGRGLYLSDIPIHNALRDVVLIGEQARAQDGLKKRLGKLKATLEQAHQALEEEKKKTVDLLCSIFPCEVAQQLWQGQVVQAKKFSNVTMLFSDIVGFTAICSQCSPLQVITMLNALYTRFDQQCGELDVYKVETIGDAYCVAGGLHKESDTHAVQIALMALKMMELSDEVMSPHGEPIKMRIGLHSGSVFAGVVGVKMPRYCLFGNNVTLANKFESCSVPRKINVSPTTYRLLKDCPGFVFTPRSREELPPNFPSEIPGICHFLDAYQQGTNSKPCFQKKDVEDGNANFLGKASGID
T1 sequence (Q02153 1-619): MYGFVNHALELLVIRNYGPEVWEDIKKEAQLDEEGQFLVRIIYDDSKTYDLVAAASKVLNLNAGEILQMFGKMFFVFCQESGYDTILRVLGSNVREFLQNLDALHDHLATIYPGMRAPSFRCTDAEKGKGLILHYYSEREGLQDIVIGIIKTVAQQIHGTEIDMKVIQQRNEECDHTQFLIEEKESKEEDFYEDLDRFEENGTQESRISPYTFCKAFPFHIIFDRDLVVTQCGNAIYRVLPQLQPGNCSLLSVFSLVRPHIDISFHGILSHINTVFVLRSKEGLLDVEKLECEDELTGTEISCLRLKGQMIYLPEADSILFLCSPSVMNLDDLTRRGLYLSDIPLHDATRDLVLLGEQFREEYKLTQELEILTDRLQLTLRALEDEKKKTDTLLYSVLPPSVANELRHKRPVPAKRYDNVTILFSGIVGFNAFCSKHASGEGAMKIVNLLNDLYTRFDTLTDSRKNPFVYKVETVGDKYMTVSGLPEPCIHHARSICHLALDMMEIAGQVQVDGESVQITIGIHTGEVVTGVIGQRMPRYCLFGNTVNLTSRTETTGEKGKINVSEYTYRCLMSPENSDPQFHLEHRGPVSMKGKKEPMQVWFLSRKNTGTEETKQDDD
Summary of the method: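 cGMP was quantified by HTRF after 1 hr, 37° C exposure of thawed CHO-K1 cells expressing sGC α1/β1 to compound, with or without 1 μM DETA-NO. IBMX (0.5 mM) blocked cGMP breakdown, and DMSO was 2.5% final. Percent of standard Compound A's maximal cGMP was fitted (4P) for inflection point.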

| Structure (SMILES) | Emax (sGC α1/β1 heterodimer) [%] | EC50 (sGC α1/β1 heterodimer) [nM] | Maximum peak decrease of systolic blood pressure (SBP) in SHR, Cat. ([1]; P.O. 1.0 mpk) | Maximum peak decrease of systolic blood pressure (SBP) in SHR, Cat. ([1]; P.O. 3.0 mpk) | Maximum peak decrease of systolic blood pressure (SBP) in SHR, Cat. ([1]; P.O. 0.3 mpk) |
| --- | --- | --- | --- | --- | --- |
| Cc1cn2cc(-c3nc(N)c4c(n3)NC(=O)C4(C)c3ccc(F)cc3)nc(CCC(F)(F)C(F)(F)F)c2n1 (stereo not drawn) [Example 170A, 4-amino-5-(4-fluorophenyl)-5-methyl-2-(2-methyl-8-(3,3,4,4,4-pentafluorobutyl)imidazo [1,2-a]pyrazin-6-yl)-5H-pyrrolo[2,3-d]pyrimidin-6(7H)-one] | 104 | 57 | B (Category B=SBP in SHRs 20-40 mmHg) | – | – |
| Cc1cn2cc(-c3nc(N)c4c(n3)NC(=O)C4(C)c3ccc(F)cn3)nc(CCC(F)(F)C(F)(F)F)c2n1 (stereo not drawn) [Example 172A, 4-amino-5-(5-fluoropyridin-2-yl)-5-methyl-2-(2-methyl-8-(3,3,4,4,4-pentafluorobutyl)imidazo [1,2-a]pyrazin-6-yl)-5H-pyrrolo[2,3-d]pyrimidin-6(7H)-one] | 124 | 637 | – | B (Category B=SBP in SHRs 20-40 mmHg) | – |
| Cc1cnc2c(CCC(F)(F)C(F)(F)F)nc(-c3nc(N)c4c(n3)NC(=O)C4(C)c3ccc(F)cn3)cn12 (stereo not drawn) [Example 173B, 4-amino-5-(5-fluoropyridin-2-yl)-5-methyl-2-(3-methyl-8-(3,3,4,4,4-pentafluorobutyl)imidazo [1,2-a]pyrazin-6-yl)-5H-pyrrolo[2,3-d]pyrimidin-6(7H)-one] | 92 | 156 | B (Category B=SBP in SHRs 20-40 mmHg) | – | – |
| COc1cn2cc(-c3nc(N)c4c(n3)NC(=O)C4(C)c3ccc(F)cc3)nc(CCC(F)(F)C(F)(F)F)c2n1 (stereo not drawn) [Example 174A, 4-amino-5-(4-fluorophenyl)-2-(2-methoxy-8-(3,3,4,4,4-pentafluorobutyl)imidazo [1,2-a]pyrazin-6-yl)-5-methyl-5H-pyrrolo[2,3-d]pyrimidin-6(7H)-one] | 139 | 107 | B (Category B=SBP in SHRs 20-40 mmHg) | – | – |
| COc1cn2cc(-c3nc(N)c4c(n3)NC(=O)C4(C)c3ccc(F)cn3)nc(CCC(F)(F)C(F)(F)F)c2n1 (stereo not drawn) [Example 175B, 4-amino-5-(5-fluoropyridin-2-yl)-2-(2-methoxy-8-(3,3,4,4,4-pentafluorobutyl)imidazo [1,2-a]pyrazin-6-yl)-5-methyl-5H-pyrrolo[2,3-d]pyrimidin-6(7H)-one] | 88 | 501 | A (Category A=SBP in SHRs<20 mmHg) | – | – |
| CC1(c2ccc(Cl)cc2)C(=O)Nc2nc(-c3cn4ccnc4c(CCC(F)(F)F)n3)nc(N)c21 (stereo not drawn) [Example 182A, 4-amino-5-(4-chlorophenyl)-5-methyl-2-(8-(3,3,3-trifluoropropyl)imidazo[1,2-a]pyrazin-6-yl)-5H-pyrrolo[2,3-d]pyrimidin-6(7H)-one] | 120 | 55 | B (Category B=SBP in SHRs 20-40 mmHg) | – | – |
| CC1(c2ccc(F)c(F)c2)C(=O)Nc2nc(-c3cn4ccnc4c(CCC(F)(F)F)n3)nc(N)c21 (stereo not drawn) [Example 183B, 4-amino-5-(3,4-difluorophenyl)-5-methyl-2-(8-(3,3,3-trifluoropropyl)imidazo[1,2-a]pyrazin-6-yl)-5H-pyrrolo[2,3-d]pyrimidin-6(7H)-one] | 113 | 61 | B (Category B=SBP in SHRs 20-40 mmHg) | – | – |
| CC1(c2ccc(Cl)c(Cl)c2)C(=O)Nc2nc(-c3cn4ccnc4c(CCC(F)(F)F)n3)nc(N)c21 (stereo not drawn) [Example 186A, 4-amino-5-(3,4-dichlorophenyl)-5-methyl-2-(8-(3,3,3-trifluoropropyl)imidazo[1,2-a]pyrazin-6-yl)-5H-pyrrolo[2,3-d]pyrimidin-6(7H)-one] | 129 | 207 | B (Category B=SBP in SHRs 20-40 mmHg) | – | – |
| CC1(c2ccccc2)C(=O)Nc2nc(-c3cn4ccnc4c(CCC(F)(F)F)n3)nc(N)c21 (stereo not drawn) [Example 188B, 4-amino-5-methyl-5-phenyl-2-(8-(3,3,3-trifluoropropyl)imidazo[1,2-a]pyrazin-6-yl)-5H-pyrrolo[2,3-d]pyrimidin-6(7H)-one] | 154 | 304 | – | B (Category B=SBP in SHRs 20-40 mmHg) | – |

Further compounds by falling EC50 (sGC α1/β1 heterodimer), results first:

| Emax (sGC α1/β1 heterodimer) [%] | EC50 (sGC α1/β1 heterodimer) [nM] | Structure (SMILES) | Maximum peak decrease of systolic blood pressure (SBP) in SHR, Cat. ([1]; P.O. 1.0 mpk) | Maximum peak decrease of systolic blood pressure (SBP) in SHR, Cat. ([1]; P.O. 3.0 mpk) | Maximum peak decrease of systolic blood pressure (SBP) in SHR, Cat. ([1]; P.O. 0.3 mpk) |
| --- | --- | --- | --- | --- | --- |
| 132 | 235 | Cc1ccc(C2(C)C(=O)Nc3nc(-c4cn5ccnc5c(CCC(F)(F)F)n4)nc(N)c32)cc1 (stereo not drawn) [Example 185A, 4-amino-5-methyl-5-(p-tolyl)-2-(8-(3,3,3-trifluoropropyl)imidazo[1,2-a]pyrazin-6-yl)-5H-pyrrolo[2,3-d]pyrimidin-6(7H)-one] | – | C (Category C=SBP in SHRs>40 mmHg) | – |
| 134 | 176 | CC1(c2ccc(F)cc2)C(=O)Nc2nc(-c3cn4ccnc4c(CCC(F)(F)F)n3)nc(N)c21 (stereo not drawn) [Example 184A, 4-amino-5-(4-fluorophenyl)-5-methyl-2-(8-(3,3,3-trifluoropropyl)imidazo[1,2-a]pyrazin-6-yl)-5H-pyrrolo[2,3-d]pyrimidin-6(7H)-one] | B (Category B=SBP in SHRs 20-40 mmHg) | – | – |
| 126 | 80 | Cc1cnc2c(CCC(F)(F)C(F)(F)F)nc(-c3nc(N)c4c(n3)NC(=O)C4(C)c3ccc(F)cc3)cn12 (stereo not drawn) [Example 171A, 4-amino-5-(4-fluorophenyl)-5-methyl-2-(3-methyl-8-(3,3,4,4,4-pentafluorobutyl)imidazo [1,2-a]pyrazin-6-yl)-5H-pyrrolo[2,3-d]pyrimidin-6(7H)-one] | B (Category B=SBP in SHRs 20-40 mmHg) | – | – |
| 107 | 79 | COc1cn2cc(-c3nc(N)c4c(n3)NC(=O)C4(C)c3ccc(F)cc3)nc(CCCC(F)(F)F)c2n1 (stereo not drawn) [Example 176A, 4-amino-5-(4-fluorophenyl)-2-(2-methoxy-8-(4,4,4-trifluorobutyl)imidazo[1,2-a]pyrazin-6-yl)-5-methyl-5H-pyrrolo[2,3-d]pyrimidin-6(7H)-one] | B (Category B=SBP in SHRs 20-40 mmHg) | – | – |
| 132 | 56 | CC1(c2ccc(Br)cc2)C(=O)Nc2nc(-c3cn4ccnc4c(CCC(F)(F)F)n3)nc(N)c21 (stereo not drawn) [Example 181A, 4-amino-5-(4-bromophenyl)-5-methyl-2-(8-(3,3,3-trifluoropropyl)imidazo[1,2-a]pyrazin-6-yl)-5H-pyrrolo[2,3-d]pyrimidin-6(7H)-one] | B (Category B=SBP in SHRs 20-40 mmHg) | – | – |
| 129 | 45 | CC1(c2ccc(Cl)cc2F)C(=O)Nc2nc(-c3cn4ccnc4c(CCC(F)(F)F)n3)nc(N)c21 (stereo not drawn) [Example 179A, 4-amino-5-(4-chloro-2-fluorophenyl)-5-methyl-2-(8-(3,3,3-trifluoropropyl)imidazo[1,2-a]pyrazin-6-yl)-5H-pyrrolo[2,3-d]pyrimidin-6(7H)-one] | C (Category C=SBP in SHRs>40 mmHg) | – | – |
| 106 | 17 | CC1(c2ccc(Cl)c(F)c2)C(=O)Nc2nc(-c3cn4ccnc4c(CCC(F)(F)F)n3)nc(N)c21 (stereo not drawn) [Example 178B, 4-amino-5-(4-chloro-3-fluorophenyl)-5-methyl-2-(8-(3,3,3-trifluoropropyl)imidazo[1,2-a]pyrazin-6-yl)-5H-pyrrolo[2,3-d]pyrimidin-6(7H)-one] | – | – | B (Category B=SBP in SHRs 20-40 mmHg) |
